Reference: patent publication US20260007680A1, “Compounds and Their Use as PDE4 Activators” (Mironid Limited, priority 2022, published 2026)

Tests used:
PDE4D5 = biological target: T1, PDE4D5 (Homo sapiens, UniProt Q08499); assay: PDE assay, activation of PDE4D5 long form (Experiment 1); assay type: biochemical; details: 100 μM test compound; mean % increase in counts over basal activity
T1 construct: Using Full-Length Human PDE4 Isoforms; Long Forms PDE4D5, PDE4C3, PDE4B1 and Short Form PDE4B2; made in house; cytosol fraction of cell lysate
T1 sequence (Q08499 1-745 isoform Q08499-6): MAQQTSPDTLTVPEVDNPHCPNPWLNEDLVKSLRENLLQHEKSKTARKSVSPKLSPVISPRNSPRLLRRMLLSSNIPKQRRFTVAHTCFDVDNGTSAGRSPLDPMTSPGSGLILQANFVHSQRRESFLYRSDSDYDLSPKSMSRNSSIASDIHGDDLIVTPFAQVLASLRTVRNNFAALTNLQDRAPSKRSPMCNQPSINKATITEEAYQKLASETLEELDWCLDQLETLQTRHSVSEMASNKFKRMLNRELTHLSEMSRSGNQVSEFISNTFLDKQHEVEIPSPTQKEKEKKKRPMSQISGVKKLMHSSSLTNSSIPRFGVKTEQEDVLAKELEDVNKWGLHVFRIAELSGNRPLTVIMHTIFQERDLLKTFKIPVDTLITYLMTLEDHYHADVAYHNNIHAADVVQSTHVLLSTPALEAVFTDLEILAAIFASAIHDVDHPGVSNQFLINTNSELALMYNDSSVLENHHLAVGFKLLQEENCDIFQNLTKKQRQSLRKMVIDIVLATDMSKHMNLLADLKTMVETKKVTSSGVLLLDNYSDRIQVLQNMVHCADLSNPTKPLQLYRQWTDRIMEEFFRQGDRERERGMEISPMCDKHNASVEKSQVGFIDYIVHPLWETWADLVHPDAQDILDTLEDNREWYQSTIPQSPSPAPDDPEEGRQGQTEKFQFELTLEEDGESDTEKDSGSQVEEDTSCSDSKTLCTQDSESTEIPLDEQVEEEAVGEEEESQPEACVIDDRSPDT
Method: (§1) One suitable method of detecting whether or not a compound is capable of serving as an activator of a PDE4 long form is using a two-step radio-assay procedure described in Experiment 1. In summary, the method involves incubating a PDE4 long form with a test small molecule activator, together with [^3H]-labelled cAMP to assess alterations in the breakdown of cAMP to the 5′-adenosine monophosphate (5′-AMP) product. A sample of the reaction mixture from such an incubation is subsequently treated with snake venom 5′-nucleotidase to allow conversion of the nucleotide [^3H]-labelled 5′-AMP to the uncharged nucleoside [^3H]-labelled adenosine, which can be separated and quantified to assess PDE4 activity and the effect of the test compound (Thompson, W. J. and Appleman, M. M. Biochemistry 10: 311-316, 1971, with some modifications as described in: Marchmont, R. J. and Houslay, M. D. Biochem J. 187: 381-92, 1980).
(§2) Experiment 1: Measurement of Modulation of Enzyme Activity by PDE4 Long Form Activators of the Present Invention Using Full-Length Human PDE4 Isoforms; Long Forms PDE4D5, PDE4C3, PDE4B1 and Short Form PDE4B2 • (Marchmont, R. J. and Houslay, M. D. Biochem. J. 187: 381-92, 1980)
For transient transfection of exogenous PDE4 long isoforms, HEK 293 cells were transfected with pcDNA3.1 or pDEST^TM PDE4 expression vectors using Lipofectamine LTX/Plus reagent (Invitrogen) as outlined by the manufacturer.
(§3) Where stable cell lines were generated the clonal isolates were expanded to obtain cell lines that stably expressed the full-length human PDE4 long isoforms and the full length human PDE4B2 short isoform. These were called the HEK-PDE4D5, HEK-PDE4B1 and HEK-PDE4B2 cell lines, respectively.
HEK-PDE4D5 cells were seeded out in 100 mm plates and incubated at 37° C. in an atmosphere of 5% CO2, 95% air. Cell lysates were prepared using KHEM buffer [50 mM KCl, 10 mM EGTA, 50 mM HEPES (pH 7.2), 1.92 mM MgCl2].
To prepare the cell lysates, the 100 mm plates containing the cells were placed on ice and washed with ice-cold PBS (phosphate buffered saline, pH 7.4). KHEM buffer (500 μL) was added to the cells. Cells were then scraped off the plate and triturated using a needle (BD Microlance™ 0.8, 40 mm). The lysed cells were then centrifuged at 2000 rpm for 10 minutes to remove cell debris and the supernatant (cell lysate containing recombinant PDE4D5) was transferred to a fresh tube and kept on ice.
The cell lysate containing recombinant PDE4D5 was transferred into a centrifuge tube and placed into an ultracentrifuge (BECKMAN COULTER) and spun at high speed (100,000 g) for 30 minutes at 4° C. The cytosol fraction was then collected and its protein amount determined using a BCA protein assay.
PDE assays were performed in thin walled V-bottomed 96-well plates. The assays were performed at a final concentration of 10 mM Tris/5 mM MgCl2 plus PDE4D5 cell lysate cytosol fraction, containing over-expressed PDE4D5, with and without test compound. The lysate/compound mix were incubated together for 15 min at room temperature on an orbital shaker prior to addition of [^3H] cAMP (final concentration 1 μM [^3H] cAMP; Perkin Elmer) to a final volume of 50 μL per reaction. The reactions were then incubated for 10 minutes at 30° C., terminated by heating for 2 min at 95° C. and allowed to cool. Snake venom (12.5 μL of 1 mg/mL; Crotalus atrox, Sigma) was then added and the plates were agitated and incubated for a further 15 minutes at 30° C. Dowex ion exchange resin (Sigma, chloride form, 200-400 mesh; 200 μL; prepared as a 1:1 Dowex:water stock, thoroughly re-suspended and diluted 2:1 with ethanol) was then added to each well and the plates incubated for 15 min at room temperature on an orbital shaker ensuring sufficient agitation for resin suspension (550 RPM). The reaction mixture was then transferred to a 96 well filter plate (Millipore; 0.45 μm pore size) and filtered into a receiving 96-well plate to remove the dowex suspension. […]

PDE4B2 = biological target: T2, PDE4B2 (Homo sapiens, UniProt Q07343); assay: PDE assay, PDE4B2 short form (Experiment 1); assay type: biochemical; details: 100 μM test compound; mean % increase in counts over basal activity
T2 construct: the full length human PDE4B2 short isoform; made in house; cytosol fraction of cell lysate, prepared as described for PDE4D5
T2 sequence (Q07343 1-564 isoform Q07343-2): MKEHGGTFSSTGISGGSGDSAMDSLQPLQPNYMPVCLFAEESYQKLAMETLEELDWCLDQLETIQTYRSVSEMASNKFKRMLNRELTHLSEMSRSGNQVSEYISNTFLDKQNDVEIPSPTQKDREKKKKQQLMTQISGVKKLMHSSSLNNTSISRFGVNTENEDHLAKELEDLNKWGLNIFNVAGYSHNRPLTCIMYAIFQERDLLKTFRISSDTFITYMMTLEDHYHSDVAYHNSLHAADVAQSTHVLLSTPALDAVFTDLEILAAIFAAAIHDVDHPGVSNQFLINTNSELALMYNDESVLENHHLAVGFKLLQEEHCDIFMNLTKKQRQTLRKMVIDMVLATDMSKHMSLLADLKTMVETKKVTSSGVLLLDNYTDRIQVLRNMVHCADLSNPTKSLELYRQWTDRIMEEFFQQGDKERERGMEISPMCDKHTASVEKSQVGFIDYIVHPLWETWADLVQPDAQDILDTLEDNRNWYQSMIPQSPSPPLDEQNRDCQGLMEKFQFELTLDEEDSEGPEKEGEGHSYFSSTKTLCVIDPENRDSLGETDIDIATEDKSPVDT
Method: as §1, §2, §3
PDE assays were performed in thin walled V-bottomed 96-well plates. The assays were performed at a final concentration of 10 mM Tris/5 mM MgCl2 plus PDE4D5 cell lysate cytosol fraction, containing over-expressed PDE4D5, with and without test compound. The lysate/compound mix were incubated together for 15 min at room temperature on an orbital shaker prior to addition of [^3H] cAMP (final concentration 1 μM [^3H] cAMP; Perkin Elmer) to a final volume of 50 μL per reaction. The reactions were then incubated for 10 minutes at 30° C., terminated by heating for 2 min at 95° C. and allowed to cool. Snake venom (12.5 μL of 1 mg/mL; Crotalus atrox, Sigma) was then added and the plates were agitated and incubated for a further 15 minutes at 30° C. Dowex ion exchange resin (Sigma, chloride form, 200-400 mesh; 200 μL; prepared as a 1:1 Dowex:water stock, thoroughly re-suspended and diluted 2:1 with ethanol) was then added to each well and the plates incubated for 15 min at room temperature on an orbital shaker ensuring sufficient agitation for resin suspension (550 RPM). The reaction mixture was then transferred to a 96 well filter plate (Millipore; 0.45 μm pore size) and filtered into a receiving 96-well plate to remove the dowex suspension. 30 μL of the filtered solution was then transferred to the wells of an Opti-plate (Perkin Elmer) 96 well assay plate and 120 μL of Microscint 40 scintillation fluid was added. The plate was then placed on an orbital shaker for 10 min at high speed (900 rpm) to mix the sample with scintillation fluid prior to quantitation using a plate based scintillation counter (Top-Count).
The % increase in counts in the presence of test compound at a particular concentration indicates the % increase in enzyme activity at that concentration.

m-IMCD3 cells = assay: Inhibition of PGE2-stimulated in vitro cyst formation in 3D culture of m-IMCD3 cells (Experiment 4); assay type: cell-based, mouse; details: Mus musculus, mIMCD3, 144 h, 10 μM test compound, mean cyst area compared to 100% for (DMSO + PGE2) and 0% for DMSO control, read-out: % Cyst area* after incubation with 10 μM test compound
Method: HEK 293 and MDCK cells (Public Health England, Cell Culture Collections) were maintained in Dulbecco's Modified Eagle's Medium (DMEM) supplemented with 10% (v/v) fetal bovine serum (FBS) (Seralab), 2 mM L-glutamine and 100 U/ml penicillin streptomycin cocktail (ThermoFisher); termed complete media. Clonal HEK 293 cell lines were maintained in complete media supplemented with 0.6 mg/mL G418 (Enzo Life Sciences). Mouse inner medullary collecting duct (m-IMCD3) cells [American Type Culture Collection (ATCC)] were maintained in media consisting of DMEM/Hams F-12 50/50 Mix (DMEM F12; Corning) supplemented with penicillin streptomycin cocktail (100 U/ml) and FBS (10% v/v) (DMEM F12-10% FBS).
The mouse Inner Medullary Collecting Duct cell line (m-IMCD3) spontaneously forms cystic spheroids in 3D culture with a Type 1 collagen/Matrigel extracellular matrix. This process can be stimulated with agents which raise intracellular cAMP and is used as an in vitro model for the formation of cystic structures in the kidneys of patients with ADPKD.
Rat Collagen I (Fisher Scientific) is prepared on ice by neutralising with 1 M NaOH and diluting with a 2×volume of DMEM/F12+10% FBS. This is mixed 1:1.1 with ice cold Matrigel (Corning) for coating plates (coating mix), and 1:0.93 with Matrigel for cell plating (plating mix).
The assay is conducted in the wells of a 96-well plate culture dish using a total volume of 130 μL of collagen/Matrigel/DMEM F12-10% FBS suspension in growth media for each matrix plug per individual well. Initially, 30 μL of collagen/Matrigel/DMEM F12-10% FBS (coating mix) is added into the well of a 96 well plate and the collagen is set to a gel by incubating at 37° C. for at least 15 minutes. A second layer of 100 μL collagen/Matrigel suspension (plating mix) containing m-IMCD3 cells (2.75×10^6 m-IMCD3 cells per 96-well plate) is layered over the coating mix and the collagen/Matrigel/cell mix again set to a gel by incubating at 37° C. Cell cultures are maintained at 37° C. in an atmosphere of 5% CO2, 95% air.
Between 18 and 24 h after plating, test compound(s) as DMSO stock solutions [0.1% (v/v) final DMSO concentration] and PGE2 (100 nM final concentration) in DMEM F12-10% FBS are added in quadruplicate wells per condition. Media, together with the test compound and PGE2 are replenished after 2 or 3 days. After 6 days of culture z stack images of the wells are captured using the Nikon Eclipse Ti2-E microscope. Nikon General Analysis software is used to measure the following parameters in each well: the mean cyst area, the number of cysts, and the total cyst area.
PDE4 long form activators inhibited in vitro cyst formation in m-IMCD3 cells. Data are shown in FIG. 2 and Table 4 as mean cyst area (%), compared to 100% for (DMSO+PGE2) and 0% for DMSO control.

Row | activation at 100 µM (PDE4D5) [%] | activation at 100 µM (PDE4B2) [%] | SMILES | activity at 10 µM (m-IMCD3 cells) [%]
1 | 176 | 0 | O=C(N[C@H]1CCOc2ccccc21)c1ccc2nc(-c3cccnc3)nn2c1 [Example 34, (S)—N-(chroman-4-yl)-2-(pyridin-3-yl)-[1,2,4]triazolo[1,5-a]pyridine-6-carboxamide] | 
2 | 57 | 6 | Cc1cncc(-c2nc3ccc(C(=O)N[C@H]4CCOc5ccccc54)cn3n2)c1 [Example 36, (S)—N-(chroman-4-yl)-2-(5-methylpyridin-3-yl)-[1,2,4]triazolo[1,5-a]pyridine-6-carboxamide] | 
3 | 127 | -24 | Cc1ccncc1-c1nc2ccc(C(=O)N[C@H]3CCOc4ccccc43)cn2n1 [Example 37, (S)—N-(chroman-4-yl)-2-(4-methylpyridin-3-yl)-[1,2,4]triazolo[1,5-a]pyridine-6-carboxamide] | 
4 | 68 | -11 | Cc1ccc(-c2nc3ccc(C(=O)N[C@H]4CCOc5ccccc54)cn3n2)cn1 [Example 35, (S)—N-(chroman-4-yl)-2-(6-methylpyridin-3-yl)-[1,2,4]triazolo[1,5-a]pyridine-6-carboxamide] | 

Further lines, the compound ahead of its results:

Row | SMILES | activation at 100 µM (PDE4D5) [%] | activation at 100 µM (PDE4B2) [%] | activity at 10 µM (m-IMCD3 cells) [%]
5 | O=C(N[C@@H]1CCOc2ccc(Cl)cc21)c1ccc2[nH]c(-c3cccnc3)nc2c1 [Example 11, (R)—N-(6-chlorochroman-4-yl)-2-(pyridin-3-yl)-1H-benzo[d]imidazole-5-carboxamide] | 35 |  | 
6 | O=C(N[C@H]1CCc2ccccc21)c1ccc2[nH]c(-c3cccnc3)nc2c1 [Example 10, (S)—N-(2,3-dihydro-1H-inden-1-yl)-2-(pyridin-3-yl)-1H-benzo[d]imidazole-5-carboxamide] | 46 | -35 | 
7 | Cc1ccc(-c2nc3ccc(C(=O)N[C@H]4CCOc5ccccc54)cn3n2)c(C)n1 [Example 39, (S)—N-(chroman-4-yl)-2-(2,6-dimethylpyridin-3-yl)-[1,2,4]triazolo[1,5-a]pyridine-6-carboxamide] | 63 | -28 | 
8 | O=C(N[C@H]1CCOc2ccccc21)c1cnc2cc(-c3cccnc3)nn2c1 [Example 90, (S)—N-(chroman-4-yl)-2-(pyridin-3-yl)pyrazolo[1,5-a]pyrimidine-6-carboxamide] | 99 | -8 | 
9 | CN1CCC(c2nc3cc(C(=O)N[C@H]4CCCc5ccccc54)ccc3[nH]2)CC1 [Example 15, (S)-2-(1-methylpiperidin-4-yl)-N-(1,2,3,4-tetrahvdronaphthalen-1-yl)-1H-benzo[d]imidazole-5-carboxamide] | 123 | 3 | 
10 | O=C(N[C@H]1CCOc2ccccc21)c1ccc2[nH]c(-c3cccnc3)nc2c1 [Example 8, (S)—N-(chroman-4-yl)-2-(pyridin-3-yl)-1H-benzo[d]imidazole-5-carboxamide] | 52 | -35 | 
11 | Cc1cncc(-c2nc3cc(C(=O)N[C@H]4CCOc5ccccc54)ccc3n2C)c1 [Example 23, (S)—N-(chroman-4-yl)-1-methyl-2-(5-methylpyridin-3-yl)-1H-benzo[d]imidazole-5-carboxamide] |  |  | 12
12 | CN1CCC(c2cc3ncc(C(=O)NC4CCCCC4)cn3n2)CC1 [Example 86, N-cyclohexyl-2-(1-methylpiperidin-4-yl)pyrazolo[1,5-a]pyrimidine-6-carboxamide] |  |  | 7
